Results as given in paper PMC6664820, “Novel natural and synthetic inhibitors of solute carriers SGLT1 and SGLT2” (Pharmacology Research & Perspectives, 2019).
“Also recorded” adds a separate entry of the source. Read-outs that look alike come from different tables or passages of the source.

Assays:
[1] = test system: transporters; parameters: method as in earlier work; details: known transporter targets, per category of inhibited transporters, cited from earlier work
[2] = target: T1, SGLT1 (Homo sapiens, UniProt P13866); test: SGLT1 inhibition assay for validation of screening hits and similar compounds (1‐NBD‐glucose uptake, CHO‐hSGLT1 cells); assay type: cell-based; details: for IC50: 1‐NBD‐glucose uptake, CHO‐hSGLT1, mean of n biological replicates, or individual measurements where n=2, read-out: SGLT1‐IC50 Mean; for remaining activity at 5 µM / remaining activity at 50 µM: 0.5 h, mean, concentration not given, read-out: NORMALIZED SGLT1 ACTIVITY (%); for inhibition at 50 µM: mean inhibition with 50 μmol/L inhibitor, read-out: SGLT1 inhibition; for SGLT1/2 inhibition stated in words: SGLT1 and/or SGLT2, discussion statements
T1 sequence (P13866 1-664): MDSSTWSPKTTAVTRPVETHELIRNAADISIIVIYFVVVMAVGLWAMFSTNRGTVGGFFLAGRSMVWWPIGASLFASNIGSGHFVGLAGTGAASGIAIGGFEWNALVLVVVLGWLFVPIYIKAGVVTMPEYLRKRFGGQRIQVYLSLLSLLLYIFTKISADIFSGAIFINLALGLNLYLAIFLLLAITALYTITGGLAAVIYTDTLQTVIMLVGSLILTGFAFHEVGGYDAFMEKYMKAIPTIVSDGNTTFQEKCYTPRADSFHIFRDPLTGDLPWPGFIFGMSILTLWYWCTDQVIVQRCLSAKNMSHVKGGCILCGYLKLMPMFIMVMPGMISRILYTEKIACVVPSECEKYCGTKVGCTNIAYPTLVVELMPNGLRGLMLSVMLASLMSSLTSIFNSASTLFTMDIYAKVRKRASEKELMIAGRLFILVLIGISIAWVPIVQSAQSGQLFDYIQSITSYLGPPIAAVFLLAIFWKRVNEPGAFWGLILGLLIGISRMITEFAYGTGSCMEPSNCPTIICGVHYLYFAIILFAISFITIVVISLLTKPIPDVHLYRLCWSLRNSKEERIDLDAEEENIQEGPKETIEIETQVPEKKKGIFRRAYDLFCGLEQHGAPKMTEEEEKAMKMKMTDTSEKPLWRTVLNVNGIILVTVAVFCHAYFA

[3] = target: T2, hSGLT2 (Homo sapiens, UniProt P31639); test: SGLT2 inhibition assay for validation of screening hits and similar compounds (1‐NBD‐glucose uptake, CHO‐hSGLT2 cells); assay type: cell-based; details: for IC50: 1‐NBD‐glucose uptake, CHO‐hSGLT2, mean of n biological replicates, or individual measurements where n=2, read-out: SGLT2‐IC50 Mean; for remaining activity at 5 µM / remaining activity at 50 µM: 0.5 h, mean, concentration not given, read-out: NORMALIZED SGLT2 ACTIVITY (%); for inhibition at 50 µM: mean inhibition with 50 μmol/L inhibitor
T2 sequence (P31639 1-672): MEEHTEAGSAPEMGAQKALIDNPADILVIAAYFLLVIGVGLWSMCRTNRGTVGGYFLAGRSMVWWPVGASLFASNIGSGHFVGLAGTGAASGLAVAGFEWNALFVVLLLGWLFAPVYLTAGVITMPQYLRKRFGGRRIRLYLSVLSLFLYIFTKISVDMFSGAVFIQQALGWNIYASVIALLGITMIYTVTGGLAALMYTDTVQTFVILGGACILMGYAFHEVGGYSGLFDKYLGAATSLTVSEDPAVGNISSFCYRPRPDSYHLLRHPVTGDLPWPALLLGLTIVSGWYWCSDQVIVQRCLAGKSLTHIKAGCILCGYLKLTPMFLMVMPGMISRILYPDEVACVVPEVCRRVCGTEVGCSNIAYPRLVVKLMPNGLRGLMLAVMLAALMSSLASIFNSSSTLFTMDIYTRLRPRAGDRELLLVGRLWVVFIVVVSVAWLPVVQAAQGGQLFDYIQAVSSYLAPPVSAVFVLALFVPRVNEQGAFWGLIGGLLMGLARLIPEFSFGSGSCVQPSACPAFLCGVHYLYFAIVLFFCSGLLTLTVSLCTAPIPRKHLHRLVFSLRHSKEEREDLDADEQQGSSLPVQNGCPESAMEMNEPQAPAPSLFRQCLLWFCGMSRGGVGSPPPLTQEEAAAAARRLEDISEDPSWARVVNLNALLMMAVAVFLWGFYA

[4] = target: T1, SGLT1; test: Cellular uptake and transcellular transport of 14C‐α‐methylglucose by Caco‐2 cell monolayers; assay type: cell-based; parameters: Caco‐2 cells expressing endogenous SGLT1; host or cells: Caco-2; details: 90 minutes
Experimental: Caco‐2 cells (passage numbers 7 and 13) were seeded (29,700 cells) onto polycarbonate Transwell® inserts (6.5 mm diameter and 3.0 μm pores) and cultured for 21‐24 days to obtain differentiated polarized monolayers. Apical and basal medium was refreshed twice a week and the final medium refresh was done the day before the uptake and transport experiment. TransEpithelial Electrical Resistance (TEER) was measured with an EVOM^2 epithelial voltmeter (World Precision Instruments, Sarasota, USA) and inserts were used if TEER > 3000 Ω/cm^2. First, cells were washed twice apically and basally with D‐glucose free DMEM. Then, 100 μL (+)‐pteryxin dilutions (50 μmol/L and 500 μmol/L), P p.‐extract dilutions (1/200 and 1/2000), or 0.5% (v/v) DMSO vehicle control were applied apical in D‐glucose free DMEM with 0.3% (w/v) BSA and 40 nCi/mL ^14C‐α‐methylglucose. The basal acceptor wells (24‐well) contained 350 μL D‐glucose free DMEM with 0.3% (w/v) BSA. Then, cells were incubated in a humidified incubator at 37°C with 5% CO2 for 90 minutes. Inserts were transferred to a clean 24‐well plate and washed once with DMEM (with D‐glucose) and once with HBSS, with 1 mL at the basal and 100 μL at the apical side. Cells were lysed with 100 μL of 0.2 mol/L NaOH for 30 minutes at 37°C and lysates were analyzed by liquid scintillation counting on a Tri‐Carb 2910 TR (Perkin Elmer, Groningen, The Netherlands) to determine cellular ^14C‐α‐methylglucose uptake. Basal media were analyzed accordingly to determine transcellular ^14C‐α‐methylglucose transport. Mean ± SD ^14C‐α‐methylglucose uptake and transport were calculated from two biological replicates, each consisting of four technical replicates.

[5] = target: T2, hSGLT2; test: cell-based; parameters: host or cells: CHO-K1; details: CHO, read-out: % of control remaining
[6] = test system: CHO‐hSGLT1/2 cells; test: Cytotoxicity assay (ToxiLight, adenylate kinase leakage into CHO‐SGLT1/2 inhibition assay media); parameters: CYTOTOXICITY / CY[…], mean / CYTOTOXICITY (% of vehicle control) Mean / CYTOTOXICITY, mean / CY[…] (% of vehicle control) Mean: dose or concentration left out as unconfirmed; details: mean;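 further: bioluminescent read-out of adenylate kinase released from lysed cells into the medium, given relative to DMSO vehicle control defined as 0%, higher meaning more cytolysis; percent of DMSO vehicle control bioluminescence with vehicle set at 0%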
[7] = target: T1, SGLT1; test: cell-based; parameters: host or cells: CHO-K1; details: CHO, read-out: % of control remaining

| Compound | INHIBITED TRANSPORTERS [1] | IC50 [2] | inhibition at 50 µM [2] | IC50 [3] | inhibition at 50 µM [3] | SGLT1/2 inhibition stated in words [2] | other results |
| --- | --- | --- | --- | --- | --- | --- | --- |
| C=C[C@H]1C[N@@]2CC[C@H]1C[C@@H]2[C@@H](O)c1ccnc2ccc(OC)cc12 [Quinidine, quinidine, reference compound] | SLC22A1, SLC22A2, SLC22A5, SLCO1A2, SLC22A4; also recorded: SLC22A8, SLCO1B1 | 62 µM | 50% | 56 µM | 49% |  | remaining activity at 5 µM [2]: 93%; remaining activity at 50 µM [2]: 50%; remaining activity at 5 µM [3]: 92%; remaining activity at 50 µM [3]: 51% |
| CCCCN1CCCCC1C(=O)Nc1c(C)cccc1C (stereo not drawn) [Bupivacaine, bupivacaine, reference compound] | SCN10A | 23 µM | 64% | 43 µM |  | novel SGLT1/2 inhibitors |  |
| CC=C(C)C(=O)OC1c2c(ccc3ccc(=O)oc23)OC(C)(C)C1OC(C)=O (stereo not drawn) [(+)‐pteryxin] |  | 12 µM | 89% | 9 µM |  |  | Inhibition of 14C‐α‐methylglucose cellular uptake ([4]; Caco‐2, 50 μmol/L): 18%; Inhibition of transcellular transport of 14C‐α‐methylglucose ([4]; Caco‐2, 50 μmol/L): 37%; Inhibition of 14C‐α‐methylglucose cellular uptake ([4]; Caco‐2, 500 μmol/L): 91%; Inhibition of transcellular transport of 14C‐α‐methylglucose ([4]; Caco‐2, 500 μmol/L): 89% |
| CCCN1CCCC[C@H]1C(=O)Nc1c(C)cccc1C [ropivacaine, reference compound] | SCN10A |  | 30% |  |  | novel SGLT1/2 inhibitors |  |
| CC(C)COCC(CN(Cc1ccccc1)c1ccccc1)N1CCCC1 (stereo not drawn) [Bepridil, bepridil, reference compound] | CACNA1A, CACNA1H, CACNA2D2, KCNH2, KCNQ1, KCNH2 | 10 µM | 74% | 14 µM | 70% | showed SGLT1/2 inhibition |  |
| CC(=O)OC[C@H]1O[C@@H](O[C@@H]2[C@@H](O)[C@H](O[C@@H]3[C@H](O)C(C)(C)C[C@H]4C5=CC[C@@H]6[C@@]7(C)CC[C@H](O[C@@H]8O[C@H](C(=O)O)[C@@H](O)[C@H](O)[C@H]8O[C@@H]8O[C@H](CO)[C@H](O)[C@H](O)[C@H]8O[C@@H]8O[C@H](CO)[C@@H](O)[C@H](O)[C@H]8O)[C@](C)(CO)[C@@H]7CC[C@@]6(C)[C@]5(C)CC[C@@]34C)OC[C@@H]2O)[C@H](OC(C)=O)[C@@H](OC(C)=O)[C@@H]1OC(C)=O [Soyasaponin Ab] |  |  |  |  |  |  | remaining activity at 5 µM [5]: 106%; remaining activity at 50 µM [5]: 96.8%; CYTOTOXICITY [6]: 5; remaining activity at 5 µM [7]: 104%; remaining activity at 50 µM [7]: 104% |
| C[C@@H]1O[C@@H](O[C@H]2[C@H](O[C@H]3CC[C@@]4(C)[C@@H](CC[C@]5(C)[C@@H]4CC=C4[C@@H]6CC(C)(C)CC[C@]6(C(=O)O[C@@H]6O[C@H](CO[C@@H]7O[C@H](CO)[C@@H](O[C@@H]8O[C@@H](C)[C@H](O)[C@@H](O)[C@H]8O)[C@H](O)[C@H]7O)[C@@H](O)[C@H](O)[C@H]6O)CC[C@]45C)[C@]3(C)CO)OC[C@H](O)[C@@H]2O)[C@H](O)[C@H](O)[C@H]1O [Hederacoside C] |  |  |  |  |  |  | remaining activity at 5 µM [5]: 113%; remaining activity at 50 µM [5]: 115%; CYTOTOXICITY [6]: -28; remaining activity at 5 µM [7]: 97.9%; remaining activity at 50 µM [7]: 102% |
| COc1ccc(CCN(C)CCCC(C#N)(c2ccc(OC)c(OC)c2)C(C)C)cc1OC (stereo not drawn) [verapamil] |  |  |  |  |  |  | INHIBITED TRANSPORTERS ([1]; sodium (co-)transporters): SLC6A4, SLC22A1, SLC22A4, SLC22A5 |
| C=C[C@H]1C[N@@]2CC[C@H]1C[C@H]2[C@H](O)c1ccnc2ccc(OC)cc12 [quinine, reference compound] | SLC22A1, SLC22A2, SLC22A5, SLCO1A2, SLC22A4 |  | 24% |  | 34% |  | remaining activity at 5 µM [2]: 101%; remaining activity at 50 µM [2]: 76%; remaining activity at 5 µM [3]: 92%; remaining activity at 50 µM [3]: 66% |
| CC(CN(C)C)CN1c2ccccc2CCc2ccccc21 (stereo not drawn) [trimipramine, reference compound] | SLC6A2, SLC6A3, SLC6A4 |  | 43% |  |  | novel SGLT1/2 inhibitors |  |
